Values of other authors, collected in patent US7767228B2, “Pharmaceutical composition for oral application and method for preparing thereof” (Cum Pharma Consulting Anstalt, priority 2004, dated 2010).

solubility in water: very low
SMILES: O=C(C1CCCCC1)N1CC(=O)N2CCc3ccccc3C2C1 (stereo not shown) [Praziquantel, praziquantel]
